Measurements: patent US9499484B2, “Indole, indoline derivatives, compositions comprising them and uses thereof” (priority 2012, dated 2016)
Where a name gives a salt, the structure may show the parent alone.

Tests used:
[1] = test system: ChE (AChE, BuChE) in plasma, muscle, spleen, brain
Method: E. Acetylcholinesterase (AChE) and Butylcholinesterase (BuChE) Inhibition Ex Vivo
Compounds of the invention or saline were administrated by intraperitoneal (ip) injection or gavage to groups of 6-7 male ICR or Balb C mice (5-6 weeks of age). The mice were sacrificed 15, 30, 60 or 120 min after drug administration and the brain (minus cerebellum), spleen, and muscle were rapidly removed, weighed and put on ice. Blood was also collected in heparinised tubes, centrifuged at 14000 rpm at room temperature for 4 mM to provide plasma. Phosphate buffer pH 7 was added to each tissue to produce concentrations of 1 mg/mL for brain and spleen and 8 mg/mL for muscle. The tissues were homogenised in cold phosphate buffer pH 7 containing 0.1% Triton and centrifuged at 14000 rpm. Aliquots of plasma and the supernatant of all tissues were incubated with AcTh or BuTh and DTNB in phosphate buffer pH 7 and the rate of development of the yellow colour was measured as described above. Enzyme activity was measured for each time and drug concentration and percent inhibition of the AChE or BuChE activity was calculated by comparison with that of control mice injected with saline. Results are represented as p moles acetylthiocholine or butythiocholine hydrolysed/min/gm tissue.

[2] = test system: cytokine levels in spleen and brain; assay: Anti-inflammatory activity in LPS-injected mice, cytokine protein levels; type: in vivo, mouse; conditions: 8 h after ip LPS 10 mg/kg, two doses
Method: G. Evaluation of Anti-Inflammatory Activity in Mice
For measurement of cytokine protein levels, mice were treated with saline or LPS as described above and sacrificed 4 h or 8 h after drug administration, the spleen and rapidly brain removed. The brain was separated into fore, mid and hind sections (minus cerebellum) and frozen in liquid nitrogen and stored at −80° C. until use. […] The supernatant was rapidly frozen in liquid nitrogen and stored until use at −80° C. Cytokines were detected by using Elisa kits (Biolegend) and protein determination performed with Bradford reagent (Bio-RAD, 500-0006).

[3] = test system: NO, RAW 264.7 cells; assay: NO reduction in LPS-stimulated RAW 264.7 macrophages; type: cell-based, mouse; conditions: Mus musculus, RAW264.7, 24 h, read-out: Reduction in NO levels, RAW Macrophages % peak reduction
[4] = test system: DNBS-induced colon inflammation; assay: DNBS-induced colitis in rats (model of Crohn's disease); type: in vivo, rat; conditions: rectal 1 mg/kg (2.5 μmoles/kg) prior to and after DNBS
Method: H. Measurement of Effect of Compounds of the Invention in a Model of Crohn's Disease in Rats
Inflammation in the colon was induced in male rats of the Sabra strain (250-300 g) by intra-colonic administration of 1 mL of dinitrobenzensulfonic acid (DNBS) (35 mg/mL in ethanol 25% v/v) under isoflurane anaesthesia. The novel drugs (827B or 680D) or saline was given rectally 1 h prior to DNBS at a dose of 1 mg/kg (2.5 μmoles/kg), and then twice daily at the same dose 12, 24, 36, 48, 60 and 72 h later. A group of control rats received saline rectally instead of DNBS and were pre-treated with saline instead of drug. The rats were anaesthetized by ip injection of a mixture of xylazine 3 mg, ketamine 85 mg, 1 mL/kg. The colon was exposed through a longitudinal abdominal incision. The area of ulceration was estimated. Segments of 10 cm of the colon were removed, cut open and rinsed with ice-cold saline. After cleaning with cold saline (0.9%) the wet weight of the colon was measured. Pieces of colon were analysed for activity of myeloperoxidase (MPO), a marker of neutrophil granulocyte infiltration into the inflamed colon tissue. One unit of MPO activity was defined as the amount of enzyme present that produced a change in absorbance of […] at 25° C. Results were quantified as U/g protein.

[5] = test system: NO, BV2 mouse microglial cells; assay: NO reduction in LPS-stimulated BV2 microglia; type: cell-based; conditions: for Reduction in NO levels by at >20%, BV2 Microglia range: concentration range, None = no reduction up till 100 nM
Method: The BV2 mouse microglial cells were created by infecting primary mouse microglia with v-raf/v-myc oncogen-carrying retrovirus and donated by Dr. Sigal Fleisher—Berkovich (Ben-Gurion University of the Negev). The cells were cultured in RPMI 1640 containing 0.4 mM L-Glutamine, 10% FCS, 100 units/ml penicillin, 100 μg/ml streptomycin and maintained in a humidified incubator at 37° C. with 5% CO2. For measurement of the effect of compounds on the release of NO the cells were seeded in a density of 80,000 cells/ml and confluence of about 60%, and incubated with test compounds (in the absence of FCS) for […] All the medium was removed and fresh medium containing FCS and LPS (10 μg/ml) added and the cells maintained at 37° C. for 24 h. The release of NO into the medium was determined by measurement of nitrite levels using Griess reagent reaction. For measurement of protein levels of cytokines cells were seeded in a density of 80,000 and incubated with test compounds (in the absence of FCS) and then with LPS as described above. The medium was centrifuged and supernatants collected after 6 h for TNF-α (Biolegend) and after 20 h for IL-6 (Biolegend).

[6] = Fall in body temperature in rats; type: in vivo, rat; conditions: ip injection of two doses
Method: F. Temperature Measurements in Rats
Monitoring body temperature at different times after drug administration enables one to assess in vivo both the extent of drug effect and its duration in the same group of rats. Test compounds or saline were administrated by ip injection or by gavage to female Wistar rats aged 3-4 months. Body temperature was measured rectally by means of a thermocouple probe, before and every 30 min after drug administration until this returned to pre-injection values. The change in body temperature induced by the drug was computed for each dose at each time point in comparison with the temperature prior to drug injection.

[7] = Radical scavenging, glucose oxidase/luminol luminescence; type: biochemical; conditions: concentration reducing luminescence/radical by 50%; mean ± SD, three independent experiments
How it was run: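 Glucose oxidase, luminol, sodium selenite and Co2+ in HBSS generate H2O2-driven oxidant luminescence. Compounds were added at several concentrations. The value is the concentration reducing luminescence by 50%.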

[8] = target: T1, BuChE (UniProt P81908); type: biochemical, human or equine serum; conditions: read-out: IC50 BuChE 120 min; Table 3; 120 min incubation
T1 construct: 120 min incubation; BuChE IC50
How it was run: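 Enzyme incubated at 37° C with 6-10 compound concentrations, sampled at 15, 30, 60 and 120 min; residual activity read kinetically on a microplate reader. Percent inhibition relative to no-drug enzyme; BuChE run likewise with 0.075M butylthiocholine iodide as substrate.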

[9] = test system: TNF-α, RAW 264.7 cells; assay: TNF-α reduction in LPS-stimulated RAW 264.7 macrophages; type: cell-based, mouse; conditions: Mus musculus, RAW264.7, 6 h, read-out: Reduction in TNF-α levels, RAW Macrophages % peak reduction
[10] = test system: TNF-α, BV2 mouse microglial cells; assay: TNF-α reduction in LPS-stimulated BV2 microglia; type: cell-based
[11] = Radical scavenging, Sin1; type: biochemical; conditions: mean ± SD, three independent experiments
[12] = test system: primary neurones in culture; conditions: Chyan et al., J. Biol. Chem. 1999; cited from earlier work
[13] = test system: conversion of MCI to AD; conditions: chronic treatment; cited from earlier work

Structure (SMILES): CCN(C)C(=O)Oc1ccc2c(c1)NCC2CCC(=O)OC.CS(=O)(=O)O (stereo not shown) [AN-680D, Methyl 3-(6-((ethyl(methyl)carbamoyl)oxy)indolin-3-yl)propanoate methanesulfonate]
- inhibition of ChE in mouse brain ([1]; 100 μmoles/kg): no significant inhibition
- reduction in cytokine levels in cerebral cortex (FIG. 6B) [2]: reduction
- reduction in cytokine levels in spleen (FIG. 6A) [2]: reduction
- Emax [3]: 47.8 ± 1.8%
- reduced MPO activity [4]: 80%
- reduced colon weight [4]: 30%
- reduced the area of colonic ulceration [4]: 95%
- Reduction in NO levels, BV2 Microglia % peak reduction [5]: 37.1 ± 5.3%
- Reduction in NO levels by at >20%, BV2 Microglia range [5]: 10^−3-100 nM

Structure (SMILES): CCN(C)C(=O)Oc1cccc2c1CCN2 [AN-854, Indolin-4-yl ethyl(methyl)carbamate hydrochloride]
- fall in body temperature in rats (FIG. 4) [6]: fall in body temperature
- inhibited ChE in the mouse brain ([1]; 50 μmoles/kg): 30%
- ChE inhibition in plasma, muscle, and spleen ([1]; after ip and or oral administration in mice): inhibited ChE
- IC50 [7]: 1380 ± 100 nM
- IC50 [8]: 700 nM
- Emax [3]: 45.2 ± 1.4%
- Emax [9]: 41.1 ± 3.8%
- Reduction in NO levels by at >20%, BV2 Microglia range [5]: None
- Reduction in TNF-α levels, BV2 Microglia % peak reduction [10]: 8.4 ± 1.7%
- Reduction in TNF-α levels, BV2 Microglia range ([10]; concentration range, None = no reduction up till 100 nM): 100 nM
- IC50 [11]: 570 ± 10 nM

Structure (SMILES): O=C(O)CCc1c[nH]c2ccccc12 [IPA, 3-indole-propionic acid]
- protection of primary neurones against oxidative damage induced by beta amyloid [12]: protects primary neurones in culture against oxidative damage induced by beta amyloid

Structure (SMILES): COc1cc2c(cc1OC)C(=O)C(CC1CCN(Cc3ccccc3)CC1)C2 (stereo not shown) [donepezil]
- proportion of MCI patients converting to AD [13]: did not reduce the proportion converting to AD
